Data published in ChEMBL document CHEMBL1144126, “A new insecticidal pyranocyclohexenedione from kunzea ericifolia” (1999).

Tested on: Phaedon cochleariae
Experiment: Insecticidal activity against mustard beetles at 10 ug after 24 to 48 hrs
Type: functional

In the case of `CC(C)C[C@@H]1C2=C(O[C@@H](C3=C(O)C(C)(C)C(=O)C(C)(C)C3=O)[C@H]1C(C)C)C(C)(C)C(=O)C(C)(C)C2=O` [ERICIFOLIONE], the Activity is reported as 97%.
